US10106515B2, “1-(cyclopent-2-en-1-yl)-3-(2-hydroxy-3-(arylsulfonyl)phenyl)urea derivatives as CXCR2 inhibitors” (GLAXOSMITHKLINE INTELLECTUAL PROPERTY DEVELOPMENT LIMITED, priority 2014, dated 2018)
Structures can show the parent of a compound that is named as a salt.

Molecular target: T1, recombinant human CXCR2 (Homo sapiens, UniProt P25025)
T1 construct: TEV protease site; Gal4-VP16 transcription factor
T1 sequence (P25025 1-360): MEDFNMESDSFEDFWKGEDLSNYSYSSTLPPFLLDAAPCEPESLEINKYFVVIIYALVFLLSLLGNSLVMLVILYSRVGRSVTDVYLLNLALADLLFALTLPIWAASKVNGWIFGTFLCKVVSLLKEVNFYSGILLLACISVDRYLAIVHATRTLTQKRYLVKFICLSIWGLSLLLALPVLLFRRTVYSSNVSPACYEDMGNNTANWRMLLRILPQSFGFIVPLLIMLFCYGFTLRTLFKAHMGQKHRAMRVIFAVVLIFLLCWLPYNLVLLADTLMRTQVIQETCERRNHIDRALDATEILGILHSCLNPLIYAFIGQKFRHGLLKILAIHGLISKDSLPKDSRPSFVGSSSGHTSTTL
Assay: CXCR2 Tango assay
Assay type: cell-based
Conditions: mean pIC50 of multiple test results; stimulated with 80 nM hCXCL1; reporter gene blue/green emission ratio; read-out: pIC50 (CXCR2 Tango assay) (converted)
Text: The assay measures ligand-induced activation of the receptor CXCR2 in a stable cell line containing the recombinant human CXCR2 linked to a TEV protease site and a Gal4-VP16 transcription factor (Invitrogen). Ligand binding to the receptor results in the recruitment of arrestin proteins (tagged with protease) to the receptor and triggers the release of a tethered transcription factor. The transcription factor enters the nucleus and activates the transcription of the reporter gene. The ability of a compound to inhibit CXCR2 activation is indirectly assessed by measuring the reporter gene activity.
A vial of cryopreserved cells was removed from liquid nitrogen and rapidly thawed in a water bath at 37° C. with gentle agitation. The contents of the vial were transferred drop-wise into Thawing Medium in a sterile 15 ml conical tube and then centrifuged at 1000 rpm for 4-5 min. Then the cell pellets were resuspended in Assay Medium at a density of ˜200,000 cells/ml. All test compounds were dissolved in DMSO at a concentration of 10 mM and were prepared in 100% DMSO to provide 10 point dose response curves. A reference CXCR2 antagonist was added to wells in row 2, columns 1-5 & 7-11. Exemplified compounds 1-4, 7, 8-10, 13-22, 24-26, 28-30, 32, 33, 36, 37, 40, 42-44. 95-110, 115-118, 120, 121, 125, 126, 129-134, 137, 138, 140, 142, 147-149, 153-157, 159-162, 163-166, 168, 170, 172, 174-180 and 202 were tested using the CXCR2 antagonist sodium 3-chloro-6-(3-(2,3-dichlorophenyl)ureido)-2-sulfamoylphenolate as reference compound (Reference Compound 1) (published International patent application WO2002/079122). […] Test compounds were added to wells in row 2, columns 13-17 & 19-23 and rows 3-15, columns 1-5 & 7-11/13-17 & 19-23 (columns 6 and 18 as positive controls and un-stimulated controls respectively; columns 12 and 24 as cell-free control). Compounds in solution were added to the assay plate (Greiner 781090) using an Echo (Labcyte) concentration-response program (50 nl/well). The cell-free, un-stimulated and positive controls were loaded with 50 nl/well pure DMSO to ensure that the DMSO concentration was constant across the plate for all assays. Using Multi-drop Combi (Thermo) with standard cassette, 50 μl of Assay Medium was added to each well in the cell-free controls (columns 12 and 24); 50 μl of the cell suspension without hCXCL1 (a CXCR2 ligand) was added to each well in column 18 of the plate (˜10,000 cells per well); and 50 μl of the cell suspension with 80 nM hCXCL1 was added to the rest of wells of the plate (˜10,000 cells per well). The cells were incubated overnight at 37° C./5% CO2. 10 μl of 6× substrate mixture (LiveBLAzer™-FRET B/G substrate (CCF4-AM) Cat # K1096 from Invitrogen, Inc.) was added to each well using Multi-drop Combi (Thermo) with small-tube cassette and the plates incubated at room temperature for 2 h in the dark. The plate was finally read on EnVision using one excitation channel (409 nm) and two emission channels (460 nm and 530 nm).
The blue/green emission ratio (460 nm/530 nm) was calculated for each well, by dividing the background-subtracted Blue emission values by the background-subtracted Green emission values. The dose response curve was based on sigmoidal dose-response model. All ratio data was normalized based upon the maximum emission ratio of positive control (hCXCL1) and minimum emission ratio of negative control (DMSO) on each plate. The intrinsic activity (IA) of each compound would be the normalized percentage of its maximum response after curve fitting.
All exemplified compounds (except for Compounds 203 and 204) were tested in the CXCR2 Tango assay or a similar assay described above. The data mentioned below represents a mean pIC 50 value of multiple test results. It is understood that the data illustrated below may have reasonable variation depending on the specific conditions and procedures used by the person conducting the testing.

| IC50 [nM] | SMILES |
| --- | --- |
| ≤ 10 | CC1=CCCC1NC(=O)Nc1ccc(Cl)c(S(=O)(=O)C(C)c2ncccn2)c1O (stereo not shown) [Compound 29, 1-(4-chloro-2-hydroxy-3-((1-(pyrimidin-2-yl)ethyl)sulfonyl)phenyl)-3-(2-methylcyclopent-2-en-1-yl)urea, trifluoroacetic acid salt] |
| ≤ 10 | CC(c1ncccn1)S(=O)(=O)c1c(Cl)ccc(NC(=O)NC2CCC=C2Cl)c1O (stereo not shown) [Compound 30, 1-(4-chloro-2-hydroxy-3-((1-(pyrimidin-2-yl)ethyl)sulfonyl)phenyl)-3-(2-chlorocyclopent-2-en-1-yl)urea] |
| ≤ 10 | CC1=CCC[C@H]1NC(=O)Nc1ccc(Cl)c(S(=O)(=O)C(C)CO)c1O (stereo partly drawn) [Compound 34, 1-(4-chloro-2-hydroxy-3-((1-hydroxypropan-2-yl)sulfonyl)phenyl)-3-((R)-2-methylcyclopent-2-en-1-yl)urea] |
| ≤ 10 | CC(F)(F)S(=O)(=O)c1c(Cl)ccc(NC(=O)NC2C=CCC2)c1O (stereo not shown) [Compound 36, 1-(4-chloro-3-((1,1-difluoroethyl)sulfonyl)-2-hydroxyphenyl)-3-(cyclopent-2-en-1-yl)urea] |
| ≤ 1 | CC(F)(F)S(=O)(=O)c1c(Cl)ccc(NC(=O)NC2CCC=C2Cl)c1O (stereo not shown) [Compound 37, 1-(4-chloro-3-((1,1-difluoroethyl)sulfonyl)-2-hydroxyphenyl)-3-(2-chlorocyclopent-2-en-1-yl)urea] |
| ≤ 1 | CC1(S(=O)(=O)c2c(Cl)ccc(NC(=O)N[C@@H]3CCC=C3Cl)c2O)CC(O)C1 (stereo partly drawn) [Compound 38, (R)-1-(4-chloro-2-hydroxy-3-((3-hydroxy-1-methylcyclobutyl)sulfonyl)phenyl)-3-(2-chlorocyclopent-2-en-1-yl)urea] |
| ≤ 10 | CC1(S(=O)(=O)c2c(Cl)ccc(NC(=O)NC3CCC=C3Cl)c2O)CCOCC1 (stereo not shown) [Compound 44, 1-(4-chloro-2-hydroxy-3-((4-methyltetrahydro-2H-pyran-4-yl)sulfonyl)phenyl)-3-(2-chlorocyclopent-2-en-1-yl)urea] |
| ≤ 1 | CC1=CCC[C@H]1NC(=O)Nc1ccc(Cl)c(S(=O)(=O)[C@@H]2CCCC[C@H]2O)c1O [Compound 46, 1-(4-chloro-2-hydroxy-3-((trans-2-hydroxycyclohexyl)sulfonyl)phenyl)-3-((R)-2-methylcyclopent-2-en-1-yl)urea] |
| ≤ 1 | CC1=CCC[C@H]1NC(=O)Nc1ccc(Cl)c(S(=O)(=O)[C@H]2C[C@H](C(F)F)C2)c1O [Compound 48, 1-(4-chloro-3-((trans-3-(difluoromethyl)cyclobutyl)sulfonyl)-2-hydroxyphenyl)-3-((R)-2-methylcyclopent-2-en-1-yl)urea] |
| ≤ 1 | CC1=CCC[C@H]1NC(=O)Nc1ccc(Cl)c(S(=O)(=O)[C@H]2C[C@H](F)C2)c1O [Compound 50, 1-(4-chloro-3-((trans-3-fluorocyclobutyl)sulfonyl)-2-hydroxyphenyl)-3-((R)-2-methylcyclopent-2-en-1-yl)urea] |
| ≤ 1 | CC1=CCC[C@H]1NC(=O)Nc1ccc(Cl)c(S(=O)(=O)C2CCC[C@H](O)C2)c1O (stereo partly drawn) [Compound 52, 1-(4-chloro-2-hydroxy-3-((trans-3-hydroxycyclohexyl)sulfonyl)phenyl)-3-((R)-2-methylcyclopent-2-en-1-yl)urea] |
| ≤ 10 | CC1=CCC[C@H]1NC(=O)Nc1ccc(Cl)c(S(=O)(=O)C(C)(C)[C@@H]2CCOC2)c1O [Compound 55, 1-(4-chloro-2-hydroxy-3-((2-((R)-tetrahydrofuran-3-yl)propan-2-yl)sulfonyl)phenyl)-3-((R)-2-methylcyclopent-2-en-1-yl)urea] |
| ≤ 1 | CC1=CCC[C@H]1NC(=O)Nc1ccc(Cl)c(S(=O)(=O)C(C)(C)C(F)(F)F)c1O [Compound 58, (R)-1-(4-chloro-2-hydroxy-3-((1,1,1-trifluoro-2-methylpropan-2-yl)sulfonyl)phenyl)-3-(2-methylcyclopent-2-en-1-yl)urea] |
| ≤ 1 | CC1=CCC[C@H]1NC(=O)Nc1ccc(Cl)c(S(=O)(=O)C(C)(C)C2COC2)c1O [Compound 61, (R)-1-(4-chloro-2-hydroxy-3-((2-(oxetan-3-yl)propan-2-yl)sulfonyl)phenyl)-3-(2-methylcyclopent-2-en-1-yl)urea] |
| ≤ 1 | CC1=CCC[C@H]1NC(=O)Nc1ccc(Cl)c(S(=O)(=O)C(F)(F)c2ccccn2)c1O [Compound 63, (R)-1-(4-chloro-3-((difluoro(pyridin-2-yl)methyl)sulfonyl)-2-hydroxyphenyl)-3-(2-methylcyclopent-2-en-1-yl)urea, trifluoroacetic acid salt] |
| ≤ 10 | CC1=CCC[C@H]1NC(=O)Nc1ccc(Cl)c(S(=O)(=O)C2(C)CC3(COC3)C2)c1O [Compound 65, (R)-1-(4-chloro-2-hydroxy-3-((6-methyl-2-oxaspiro[3.3]heptan-6-yl)sulfonyl)phenyl)-3-(2-methylcyclopent-2-en-1-yl)urea] |
| ≤ 10 | CC1=CCC[C@H]1NC(=O)Nc1ccc(Cl)c(S(=O)(=O)C2(C)CCN(C3CCC3)CC2)c1O [Compound 67, (R)-1-(4-chloro-3-((1-cyclobutyl-4-methylpiperidin-4-yl)sulfonyl)-2-hydroxyphenyl)-3-(2-methylcyclopent-2-en-1-yl)urea, trifluoroacetic acid salt] |
| ≤ 1 | CC1=CCC[C@H]1NC(=O)Nc1ccc(Cl)c(S(=O)(=O)C2(F)CCN(C3CCC3)CC2)c1O [Compound 73, (R)-1-(4-chloro-3-((1-cyclobutyl-4-fluoropiperidin-4-yl)sulfonyl)-2-hydroxyphenyl)-3-(2-methylcyclopent-2-en-1-yl)urea, trifluoroacetic acid salt] |
| ≤ 1 | CC1=CCC[C@H]1NC(=O)Nc1ccc(Cl)c(S(=O)(=O)C2(F)CCOC2)c1O (stereo partly drawn) [Compound 74, 1-(4-chloro-3-((3-fluorotetrahydro-furan-3-yl)sulfonyl)-2-hydroxyphenyl)-3-((R)-2-methylcyclopent-2-en-1-yl)urea] |
| ≤ 1 | CC1=CCC[C@H]1NC(=O)Nc1ccc(Cl)c(S(=O)(=O)C2CC3(COC3)C2)c1O [Compound 77, (R)-1-(3-(2-oxaspiro[3.3]heptan-6-ylsulfonyl)-4-chloro-2-hydroxyphenyl)-3-(2-methylcyclopent-2-en-1-yl)urea] |
| ≤ 10 | CC1=CCC[C@H]1NC(=O)Nc1ccc(Cl)c(S(=O)(=O)C2CCN(CC(F)F)CC2)c1O [Compound 80, (R)-1-(4-chloro-3-((1-(2,2-difluoroethyl)piper-idin-4-yl)sulfonyl)-2-hydroxyphenyl)-3-(2-methylcyclopent-2-en-1-yl)urea trifluoroacetic acid salt] |

| SMILES | IC50 [nM] |
| --- | --- |
| [2H]C1(S(=O)(=O)c2c(Cl)ccc(NC(=O)N[C@@H]3CCC=C3C)c2O)CCN(C2CCC2)CC1 [Compound 81, (R)-1-(4-chloro-3-((1-cyclobutylpiperidin-4-yl)sulfonyl)-2-hydroxyphenyl)-3-(2-methylcyclopent-2-en-1-yl)urea-d1, trifluoroacetic acid salt] | ≤ 1 |
